# US20220127297A1, “Novel Antibacterial 3"-Derivatives Of 4,6-Disubstituted 2,5-Dideoxystreptamine Aminoglycoside Antibiotics” (AGILeBiotics B.V., priority 2018, published 2022)
# Tested on: Enterobacter cloacae 3MRGN (clinical bronchial aspirate isolate)
# Test: MIC 50, broth micro-dilution, clinical isolate
# Type: cell-based
# Conditions: E. Cloacae clinical isolate
# From the text: 3.2 Against Selected Bacteria of the ESKAPE Panel and Enterococcus faecalis (DSM Strains)
# Tested reference compounds. Amikacin sulfate (Cat. No. 01693, Chem-Impex), Gentamicin sulfate (Cat. No. G4918, Sigma Aldrich).
# Microbial strains. Enterococcus faecalis DSM 2570, Klebsiella pneumoniae DSM 26371, Acinetobacter baumannii DSM 105126, Enterobacter cloacae 3MRGN (clinical bronchial aspirate isolate).
# Culture media and equipment. BBL™ Mueller Hinton Broth 2 (Lot. BCBW1143, Cat. No. 70192, Sigma); Trypcase Soy Blood-agar plates (Cat. No. 43001, Biomérieux); Cryoinstant (contains 15% glycerol; Cat. No. 822070ZA, VWR International); GasPak™ EZ Standard Incubation Container (Cat. No. 260671, Becton Dickinson); GasPak™ EZ Campy Container System Sachets (Cat. No. 260680, Becton Dickinson); 96-well deep well plate, 1 mL (Cat. No. 0030506.200, Eppendorf); Plate lid (Cat. No. 0030131.525, Eppendorf); 96-well plate, F-bottom (Cat. No. 260860, Nunc); Incubator (Sartorius Certomat BS-1); Laminar flow (Heraeus HS12); UV/VIS meter (Perkin Elmer Lambda Bio+); Platereader (Tecan Infinite M200 Pro).
# Compound preparation. Compounds were prepared in MH2 media at a concentration of 5 mM and stored at 4° C. For testing, solutions of 128 μM were prepared in MH2, for tests against E. faecalis a solution of 512 μM was prepared. Out of these working solutions, 400 μL was transferred to wells in the first column of 96-well deep well plates. Each compound was transferred in triplicate. Plates were previously filled with 200 μL of MH2 media in all wells except for the wells in the first column. After compound and antibiotic addition, the compounds were serial two-fold diluted by transferring 200 μL from the first to the second column, then from the second to the third column and so on. Finally, 200 μL was removed from the last column.
# Inoculum preparation. Microorganisms used were all revived from 15% glycerol storage in Croinstant tubes at −28° C. by plating them on blood agar plates. A. baumanni, and E. cloacae were grown aerobically at 37° C., E. faecalis was grown microaerophilically at 37° C., and K. pneumoniae was grown aerobically at 37° C. Plates were stored at 4° C. for up to two weeks, after which new plates were prepared from −28° C. A single colony was inoculated in MH2 media and grown at 37° C. and 200 rpm to an optical density (measured by UV/Vis spectroscopy) of 0.6-0.8 at 600 nm. Out of these suspensions, actual inoculums were prepared by diluting them to an optical density of 0.1 in MH2 media. From these inoculums, 200 μL was transferred to each well, resulting in a final compound concentration range of 64 μM-31.3 nM for, K. pneumoniae, A. baumanni, and E. cloacae, and 256 μM-125 nM for E. faecalis. Plates inoculated with E. faecalis were placed inside a GasPak™ Container System with GasPak™ Campy Container System sachets. All plates were incubated at 200 rpm for 18 h under the microorganism culturing conditions mentioned above.
# MIC determination. After 18 h of growth, 200 μL was transferred to a 96-well F-bottom plate. The optical density was determined by a plate reader at 600 nm, with 10 s shaking before reading. Triplicate measurements were averaged, and a growth curve was plotted in Excel. The first column in which the growth reached half the value of maximum growth was determined as the MIC50 value for that particular compound.
# MIC50. The MIC50 of a compound was assigned at which the bacterial growth reached half the value of maximum growth.
row,SMILES,MIC50 [µM]
1,"N=C(N)NC1[C@@H](O)C(OC2[C@@H](F)[C@H](O[C@H]3OC(CN)[C@@H](O)[C@H](O)C3N)C(N)C[C@H]2NC(=O)[C@@H](O)CCN)O[C@H](CO)[C@H]1O (stereo partly drawn) [ABX4004, 3′epi-KanaB-AHB-F-Gua]",1
2,"NCC[C@H](O)C(=O)N[C@@H]1CC(N)[C@@H](O[C@H]2OC(CN)[C@@H](O)CC2N)[C@H](O)C1OC1O[C@H](CO)[C@@H](O)C(N)[C@H]1O (stereo partly drawn) [ABX5004, Tobra-AHB]",1
3,"NCC[C@H](O)C(=O)N[C@@H]1CC(N)[C@@H](O[C@H]2OC(CN)[C@@H](O)[C@@H](O)C2N)[C@H](O)C1OC1O[C@H](CO)[C@@H](O)C(N)[C@H]1O (stereo partly drawn) [ABX4002, 3′Epi-KanaB-AHB]",4
4,"NCC[C@H](O)C(=O)N[C@@H]1C[C@H](N)[C@@H](O[C@H]2O[C@H](CN)[C@@H](O)[C@@H](O)[C@H]2O)[C@H](O)[C@H]1O[C@H]1O[C@H](CO)[C@@H](O)[C@H](N)[C@H]1O [ABX3002, 3′Epi-KanaA-AHB]",16

# Same assay, conditions: Enterobacter cloacae, E. Cloacae clinical isolate; read-out: MIC 50
row,SMILES,MIC50 [µM]
1,"N=C(NC[C@H]1CCNC1)NC1[C@@H](O)C(OC2[C@@H](F)[C@H](O[C@H]3OC(CN)[C@@H](O)CC3N)C(N)C[C@H]2NC(=O)[C@@H](O)CCN)O[C@H](CO)[C@H]1O (stereo partly drawn) [ABX5042, Tobra-AHB-F-Gua (S) pyrrolidine-3-ylmethyl]",0.25
2,"CC(C)(C)CCNC(=N)NC1[C@@H](O)C(OC2[C@@H](F)[C@H](O[C@H]3OC(CN)[C@@H](O)CC3N)C(N)C[C@H]2NC(=O)[C@@H](O)CCN)O[C@H](CO)[C@H]1O (stereo partly drawn) [ABX5025, Tobra-AHB-F-Gua 2-tBu-ethyl]",0.5 to 1
